Each structure is given as a SMILES string.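 Growth conditions: 96-well plates. Treatment: test compound, 48 hours, 5 concentrations. Analysis: linear interpolation between bracketing concentrations; unreached endpoints set to highest concentration. GI50 is the concentration that inhibits growth by half. TGI is the concentration that stops growth completely.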

Some test systems named below: CAKI-1 renal; DU-145 prostate; EKVX NSCLC; HL-60(TB) leukemia; HOP-92 NSCLC; OVCAR-4 ovarian; SK-MEL-5 melanoma; SK-OV-3 ovarian; SN12C renal; SR leukemia.
Common to all, as to experiment: growth of human tumour cells (NCI), 48 h

Regarding `CCC1(c2ccc(N)cc2)CCC(=O)NC1=O` (stereo not drawn), the TGI in the assay on CAKI-1 renal is 4310 µM; with DU-145 prostate it was > 5000 µM; with EKVX NSCLC it was > 5000 µM; with HL-60(TB) leukemia it was 3630 µM; in the assay on HOP-92 NSCLC it was 3560 µM; in the assay on OVCAR-4 ovarian, 4940 µM. The TGI in the assay with SK-MEL-5 melanoma is 3670 µM; with SK-OV-3 ovarian, 1950 µM; in the assay with SN12C renal, > 5000 µM; in the assay with SR leukemia it was > 5000 µM.

Take `[Cu+2].[NH-]C(CC(=O)O)C(=O)O.[NH-]C(CC(=O)O)C(=O)O` (stereo not drawn): the GI50 with CAKI-1 renal is > 100 µM; with DU-145 prostate, > 100 µM; in the assay on EKVX NSCLC, > 100 µM; with HL-60(TB) leukemia, > 100000 nM; in the assay on HOP-92 NSCLC, > 100 µM; with OVCAR-4 ovarian, 99.2 µM. Further, the GI50 with SK-MEL-5 melanoma is 26.5 µM; in the assay on SK-OV-3 ovarian, > 100000 nM; in the assay with SN12C renal, > 100 µM; in the assay on SR leukemia it was > 100000 nM. The TGI in the assay with CAKI-1 renal, in the assay on DU-145 prostate, with EKVX NSCLC, in the assay with HL-60(TB) leukemia, in the assay on HOP-92 NSCLC and with OVCAR-4 ovarian was > 100 µM in each case. In addition, the TGI in the assay with SK-MEL-5 melanoma, with SK-OV-3 ovarian, with SN12C renal and in the assay with SR leukemia was > 100 µM each time.

For `C/C=C(\C)C(=O)O[C@H]1C=CC(=O)O[C@H]1COC(=O)[C@H](C)O`, the GI50 was 5.46 µM in the assay with CAKI-1 renal; 9.17 µM in the assay with DU-145 prostate; 14.5 µM in the assay on EKVX NSCLC; 2340 nM with HL-60(TB) leukemia; 7.6 µM in the assay with HOP-92 NSCLC; 5.97 µM in the assay on OVCAR-4 ovarian. The GI50 in the assay on SK-MEL-5 melanoma is 4.62 µM; in the assay with SK-OV-3 ovarian it was 17600 nM; with SN12C renal it was 12.9 µM; with SR leukemia it was 2200 nM. Further, the TGI was found to be 14.9 µM in the assay on CAKI-1 renal; 22.4 µM in the assay with DU-145 prostate; 28.9 µM with EKVX NSCLC; 6.9 µM with HL-60(TB) leukemia; 21.1 µM with HOP-92 NSCLC; 21.5 µM in the assay on OVCAR-4 ovarian. Also, the TGI is 16.7 µM in the assay on SK-MEL-5 melanoma, 46.4 µM with SK-OV-3 ovarian, 28.3 µM with SN12C renal and 13.4 µM in the assay on SR leukemia.

On to `COC(=O)c1oc2c(C(=O)/C=C/c3ccc(OC)cc3)c(OCCN3CCOCC3)ccc2c1C`, for which the GI50 was 1.74 µM in the assay on CAKI-1 renal; 1.75 µM in the assay on DU-145 prostate; 1.87 µM in the assay on EKVX NSCLC; 1440 nM in the assay on HL-60(TB) leukemia; 1.54 µM with HOP-92 NSCLC; 2.48 µM in the assay with OVCAR-4 ovarian. Besides, the GI50 in the assay with SK-MEL-5 melanoma was 1.69 µM; in the assay on SK-OV-3 ovarian, 2920 nM; in the assay on SN12C renal, 1.78 µM; with SR leukemia, 287 nM. For the same compound, the TGI with CAKI-1 renal is 4.94 µM; with DU-145 prostate, 4.24 µM; in the assay with EKVX NSCLC, 7.49 µM; in the assay with HL-60(TB) leukemia it was 4.29 µM; with HOP-92 NSCLC it was 5.48 µM; in the assay on OVCAR-4 ovarian it was > 44.2 µM. The TGI with SK-MEL-5 melanoma was determined as 3.17 µM; with SK-OV-3 ovarian, 8.61 µM; with SN12C renal, 5.91 µM; in the assay with SR leukemia it was 1.29 µM.

Turning to `N#Cc1c(N/N=C\c2ccc(Cl)cc2)nc(N)nc1N1CCOCC1`, the GI50 in the assay on CAKI-1 renal was 43.3 µM; in the assay on DU-145 prostate, 28.8 µM; in the assay with EKVX NSCLC, 93.9 µM; in the assay on HL-60(TB) leukemia it was 9840 nM; in the assay with HOP-92 NSCLC, 36.3 µM; in the assay on OVCAR-4 ovarian, 94.4 µM. Moreover, the GI50 in the assay on SK-MEL-5 melanoma was 19 µM; with SK-OV-3 ovarian it was > 100000 nM; in the assay with SN12C renal, 55.1 µM; in the assay with SR leukemia it was 11700 nM. Besides, the TGI is > 100 µM in the assay on CAKI-1 renal; > 100 µM in the assay with DU-145 prostate; > 100 µM in the assay with EKVX NSCLC; 27.2 µM with HL-60(TB) leukemia; > 100 µM in the assay with HOP-92 NSCLC; > 100 µM in the assay on OVCAR-4 ovarian. Also, the TGI is > 100 µM with SK-MEL-5 melanoma, > 100 µM in the assay with SK-OV-3 ovarian, > 100 µM in the assay with SN12C renal and 28.9 µM in the assay with SR leukemia.

As for `COc1ccc2c(c1)C(c1cc(OC)c3c(c1)OCO3)C1=C(COC1=O)N2` (stereo not drawn), the GI50 was 0.769 µM in the assay on CAKI-1 renal; 0.397 µM in the assay on DU-145 prostate; 3.44 µM in the assay on EKVX NSCLC; 285 nM with HL-60(TB) leukemia; 23.3 µM with HOP-92 NSCLC; 1.28 µM with OVCAR-4 ovarian. Moreover, the GI50 in the assay with SK-MEL-5 melanoma is 0.262 µM; in the assay with SK-OV-3 ovarian, 305 nM; in the assay on SN12C renal it was 0.684 µM; in the assay with SR leukemia, 183 nM. For the same compound, the TGI with CAKI-1 renal is > 100 µM; in the assay on DU-145 prostate it was 3.16 µM; in the assay on EKVX NSCLC, > 100 µM; in the assay with HL-60(TB) leukemia, 1.07 µM; with HOP-92 NSCLC, > 100 µM; in the assay on OVCAR-4 ovarian it was > 100 µM. Moreover, the TGI with SK-MEL-5 melanoma was 1.9 µM; in the assay on SK-OV-3 ovarian, 7.36 µM; in the assay on SN12C renal, > 100 µM; in the assay on SR leukemia it was > 100 µM.

Turning to `COc1ccc2nc3cccc([N+](=O)[O-])c3c(NC(C)CN(C)C)c2c1` (stereo not drawn), the GI50 in the assay with CAKI-1 renal was 2.52 µM; with DU-145 prostate, 1.89 µM; in the assay on EKVX NSCLC, 6.96 µM; with HL-60(TB) leukemia, 2670 nM; in the assay on HOP-92 NSCLC, 2.38 µM; in the assay on OVCAR-4 ovarian, 2 µM. Moreover, the GI50 is 1.18 µM in the assay with SK-MEL-5 melanoma, 2620 nM with SK-OV-3 ovarian, 2.67 µM with SN12C renal and 2160 nM with SR leukemia. For the same compound, the TGI is 7.19 µM in the assay with CAKI-1 renal; 14.2 µM in the assay on DU-145 prostate; 34.4 µM with EKVX NSCLC; 5.68 µM in the assay on HOP-92 NSCLC; 4.65 µM with OVCAR-4 ovarian; 2.49 µM in the assay on SK-MEL-5 melanoma. In addition, the TGI in the assay on SK-OV-3 ovarian worked out at 9.14 µM; in the assay on SN12C renal, 9.6 µM.

In the case of `Nc1nn(C(=O)Nc2c(F)cccc2F)c2ccccc12`, the GI50 was 45.3 µM in the assay on CAKI-1 renal; 62.3 µM in the assay on DU-145 prostate; 83.9 µM with EKVX NSCLC; 33200 nM in the assay on HL-60(TB) leukemia; 17.3 µM in the assay on HOP-92 NSCLC; 57.8 µM in the assay on OVCAR-4 ovarian. The GI50 in the assay with SK-MEL-5 melanoma is 39.7 µM; in the assay on SK-OV-3 ovarian, > 100000 nM; in the assay on SN12C renal, > 100 µM; in the assay on SR leukemia it was 12900 nM. Further, the TGI in the assay on CAKI-1 renal, with DU-145 prostate, with EKVX NSCLC, in the assay with HL-60(TB) leukemia, in the assay with HOP-92 NSCLC and in the assay on OVCAR-4 ovarian was > 100 µM throughout. In addition, the TGI in the assay on SK-MEL-5 melanoma, in the assay with SK-OV-3 ovarian, with SN12C renal and in the assay on SR leukemia was > 100 µM throughout.

Values taken from PubChem BioAssay (NCI).
